Target: T1, Human IBAT (Homo sapiens, UniProt Q12908)
T1 construct: expressed in transfected cells; cells kept under Puromycin selection
T1 sequence (Q12908 1-348): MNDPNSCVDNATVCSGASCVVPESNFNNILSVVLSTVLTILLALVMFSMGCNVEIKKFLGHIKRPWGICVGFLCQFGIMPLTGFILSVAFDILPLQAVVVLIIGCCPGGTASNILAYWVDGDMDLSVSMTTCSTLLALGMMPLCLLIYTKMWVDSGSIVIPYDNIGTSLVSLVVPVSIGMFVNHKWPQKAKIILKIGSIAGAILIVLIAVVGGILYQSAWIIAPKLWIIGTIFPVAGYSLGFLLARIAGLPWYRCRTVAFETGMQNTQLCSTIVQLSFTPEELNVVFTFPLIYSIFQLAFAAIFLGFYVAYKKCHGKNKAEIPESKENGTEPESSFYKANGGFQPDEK
Assay: IBAT (h) assay: 3H-taurocholic acid uptake in human IBAT-overexpressing cells
Format: cell-based
Settings: 0.25 μM 3H-taurocholic acid and 5 μM cold taurocholic acid, 20 minutes, read-out: hIBAT IC50
Protocol: 10,000 cells (Human or Mouse IBAT-overexpressing cells) were seeded in 96-wells plate (Corning CLS3809) in 200 μL MEM-alpha medium (Gibco 12571-063) supplemented with 10% FBS (Gibco 10438026) containing Puromycin (Gibco A1113803) (10 μg/mL) and incubated at 37° C. in 5% CO2 for 48 hours. After incubation, media was decanted from the wells and cells were washed two times with 300 μL of basal MEM-alpha medium (FBS-free). After decanting basal MEM-alpha medium each time, plates were tapped against paper towel to ensure maximum removal of residual media. Test inhibitor dilutions (highest test concentration being 10 μM, 3-fold serial dilution, 10 points) prepared in DMSO (Sigma D2650) were added in incubation mix (maintaining 0.2% final DMSO concentration) containing 0.25 μM 3H-taurocholic acid (ARC ART-1368) and 5 μM of cold taurocholic acid (Sigma T4009). 50 μL of incubation mix containing test inhibitors was then added to the wells (in duplicate) and the plates were incubated for 20 minutes in a CO2 incubator at 37° C. After incubation, the reaction was stopped by keeping the plates on ice water mix for 2-3 minutes and then the incubation mix was aspirated completely from the wells. The wells were washed two times with 250 μL of chilled unlabelled 1 mM taurocholic acid dissolved in HEPES (Gibco 15630080)-buffered (10 mM) HBSS (Gibco 14175079) (pH 7.4). The plates were tapped against a paper towel after every wash to ensure maximum removal of blocking buffer.
100 μL of MicroScint-20 (PerkinElmer 6013621) was added to the wells and kept overnight at room temperature before reading the plates in TopCount NXT™ Microplate Scintillation and Luminescence Counter from PerkinElmer under 3H Test protocol (set at 120 seconds reading time per well).
All test compounds were provided in powder form at room temperature. 10 mM DMSO stocks of the test compounds were prepared, aliquoted and stored at −20° C. From the 10 mM DMSO stock of the compounds, a 3-fold serial dilution in DMSO was prepared to get a total of 10 dilutions of the test compounds. 0.5 μL of this dilution in DMSO was added to 250 μL of FBS-free basal media containing 3H-taurocholic acid and cold taurocholic acid to prepare the incubation mixture.

| IC50 | Compound |
| --- | --- |
| 26 nM | CCCCC1(CCCC)CN(c2ccc(Br)cc2)c2cc(SC)c(OCC(=O)O)cc2S(=O)(=O)C1 [Example 3, 2-((5-(4-bromophenyl)-3,3-dibutyl-7-(methylthio)-1,1-dioxido-2,3,4,5-tetrahydro-1,5-benzothiazepin-8-yl)oxy)acetic Acid] |
| 15 nM | CCCCC1(CCCC)CN(c2ccc(O)cc2)c2cc(SC)c(OCC(=O)O)cc2S(=O)(=O)C1 [Example 4, 2-((3,3-dibutyl-5-(4-hydroxyphenyl)-7-(methylthio)-1,1-dioxido-2,3,4,5-tetrahydro-1,5-benzothiazepin-8-yl)oxy)acetic Acid] |
